Experiment in all cases: KRas binding assay, TR-FRET displacement of Cy5 labelled tracer
Common to all, as to conditions: 60-minute incubation at room temperature, 1% DMSO, pH 7.5
In general terms: Time-resolved FRET reads energy transfer from a long-lived donor to a nearby acceptor.

The target in assay [1] is T1, KRas G12S (Homo sapiens, UniProt P01116, G12S).
T1 construct: Biotinylated KRas (corresponding to amino acids 1-169, produced at Accelegan Inc.); biotin (biotinylated); purchased Accelegan Inc
The method, then: (§1) This Example illustrates that exemplary compounds of the present invention bind to KRas and are capable of displacing a labeled tracer ligand occupying the KRas binding site. KRas^WT, KRas^G12A, KRas^G12C, KRas^G12D, KRas^G12R, KRas^G12S, KRas^G12V, KRas^G13D, or KRas^Q61H was used in the assay.
(§2) The ability of a compound to bind to KRas was measured using a TR-FRET displacement assay. Biotinylated KRas (corresponding to amino acids 1-169, produced at Accelegan Inc.) was incubated with custom made Cy5 labelled tracer, terbium streptavidin (Cisbio Inc.) and compound (1% DMSO final) in buffer (50 mM HEPES, pH 7.5, 5 mM MgCl2, 0.005% Tween-20 and 1 mM DTT). After a 60-minute incubation at room temperature, the reaction was measured using a BMG LABTECH CLARIO star Plus via TR-FRET. […] The POC values were fit to a 4-parameter IC50 equation and the IC50 value reported.

For assay [2], the target named is T2, KRas G12C (Homo sapiens, UniProt P01116, G12C).
T2 construct: Biotinylated KRas (corresponding to amino acids 1-169, produced at Accelegan Inc.); biotin (biotinylated); purchased Accelegan Inc
The method, then: as §1, §2

For assay [3], the target named is T3, KRas WT (Homo sapiens, UniProt P01116).
T3 construct: Biotinylated KRas (corresponding to amino acids 1-169, produced at Accelegan Inc.); biotin (biotinylated); purchased Accelegan Inc
The method, then:
as §1, §2

Some results are limits rather than exact numbers.

T1 sequence (P01116 1-169 isoform P01116-2 G12S): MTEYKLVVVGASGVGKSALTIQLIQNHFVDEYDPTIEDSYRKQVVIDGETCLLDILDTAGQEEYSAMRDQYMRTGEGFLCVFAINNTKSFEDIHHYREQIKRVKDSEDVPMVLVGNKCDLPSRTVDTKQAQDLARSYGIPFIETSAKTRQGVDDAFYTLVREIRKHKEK
T3 sequence (P01116 1-169 isoform P01116-2): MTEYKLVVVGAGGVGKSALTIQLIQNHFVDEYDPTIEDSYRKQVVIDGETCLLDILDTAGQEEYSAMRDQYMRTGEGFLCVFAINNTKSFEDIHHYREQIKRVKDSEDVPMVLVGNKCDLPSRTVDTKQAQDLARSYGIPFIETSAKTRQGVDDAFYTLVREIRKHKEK
T2 sequence (P01116 1-169 isoform P01116-2 G12C): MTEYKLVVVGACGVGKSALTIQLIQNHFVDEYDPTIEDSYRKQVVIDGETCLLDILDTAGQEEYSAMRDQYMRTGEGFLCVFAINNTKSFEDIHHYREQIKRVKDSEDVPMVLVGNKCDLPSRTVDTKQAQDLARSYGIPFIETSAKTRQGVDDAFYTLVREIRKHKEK

Broadly, the IC50 is the concentration needed to halve the response being measured. A higher IC50 goes with weaker potency. For the compound `O=C(Oc1ccccc1)C1CCN(c2nc(OCC34CCCN3CCC4)nc3c(F)c(-c4cccc5cccc(F)c45)ncc23)CC1` [Example 44, phenyl 1-(8-fluoro-7-(8-fluoronaphthalen-1-yl)-2-((tetrahydro-1H-pyrrolizin-7a(5H)-yl)methoxy)pyrido[4,3-d]pyrimidin-4-yl)piperidine-4-carboxylate], the IC50 is 81100 nM in assay [1], 1770 nM in assay [2] and over 100000 nM in assay [3].
Taken in the same sequence, the figures for `O=C(Oc1ccc(F)c(F)c1)C1CCN(c2nc(OCC34CCCN3CCC4)nc3c(F)c(-c4cccc5cccc(F)c45)ncc23)CC1` [Example 43, 3,4-difluorophenyl 1-(8-fluoro-7-(8-fluoronaphthalen-1-yl)-2-((tetrahydro-1H-pyrrolizin-7a(5H)-yl)methoxy)pyrido[4,3-d]pyrimidin-4-yl)piperidine-4-carboxylate] were 42100 nM, 424 nM and over 100000 nM.
Taken in the same sequence, the figures for `O=C(Oc1cc(F)cc(F)c1)C1CCN(c2nc(OCC34CCCN3CCC4)nc3c(F)c(-c4cccc5cccc(F)c45)ncc23)CC1` [Example 33, 3,5-difluorophenyl 1-(8-fluoro-7-(8-fluoronaphthalen-1-yl)-2-((tetrahydro-1H-pyrrolizin-7a(5H)-yl)methoxy)pyrido[4,3-d]pyrimidin-4-yl)piperidine-4-carboxylate] were over 100000 nM, 10700 nM and over 100000 nM.
Taken in the same sequence, the figures for `N#Cc1ccc(OC(=O)[C@@H]2[C@@H]3CC[C@H]2CN(c2nc(OCC45CCCN4CCC5)nc4c(F)c(-c5cccc6cccc(F)c56)ncc24)C3)cc1` [Example 20, 4-cyanophenyl (1R,5S,8r)-3-(8-fluoro-7-(8-fluoronaphthalen-1-yl)-2-((tetrahydro-1H-pyrrolizin-7a(5H)-yl)methoxy)pyrido[4,3-d]pyrimidin-4-yl)-3-azabicyclo[3.2.1]octane-8-carboxylate] were 98800 nM, 27300 nM and 14700 nM.
Turning to `O=C(Oc1ccccc1)C1CCCN(c2nc(OCC34CCCN3CCC4)nc3c(F)c(-c4cccc5cccc(F)c45)ncc23)C1` (stereo not drawn) [Example 51, phenyl 1-(8-fluoro-7-(8-fluoronaphthalen-1-yl)-2-((tetrahydro-1H-pyrrolizin-7a(5H)-yl)methoxy)pyrido[4,3-d]pyrimidin-4-yl)piperidine-3-carboxylate], the IC50 in assay [1] worked out at 56500 nM; in assay [2] it was 30300 nM; in assay [3] it was 25400 nM.
In the case of `O=C(C1CCN(c2nc(OCC34CCCN3CCC4)nc3c(F)c(-c4cccc5cccc(F)c45)ncc23)CC1)n1cccn1` [Example 11, (1-(8-fluoro-7-(8-fluoronaphthalen-1-yl)-2-((tetrahydro-1H-pyrrolizin-7a(5H)-yl)methoxy)pyrido[4,3-d]pyrimidin-4-yl)piperidin-4-yl)(1H-pyrazol-1-yl)methanone], the IC50 in assay [1] stood at 3840 nM; in assay [2], 8160 nM; in assay [3], 9270 nM.
Taken in the same sequence, the figures for `O=C(Oc1ccccc1F)C1CCCN(c2nc(OCC34CCCN3CCC4)nc3c(F)c(-c4cccc5cccc(F)c45)ncc23)C1` (stereo not drawn) [Example 52, 2-fluorophenyl 1-(8-fluoro-7-(8-fluoronaphthalen-1-yl)-2-((tetrahydro-1H-pyrrolizin-7a(5H)-yl)methoxy)pyrido[4,3-d]pyrimidin-4-yl)piperidine-3-carboxylate] were 27100 nM, 6810 nM and 20200 nM.
For `Cc1cc(C)n(C(=O)C2CCN(c3nc(OCC45CCCN4CCC5)nc4c(F)c(-c5cccc6cccc(F)c56)ncc34)CC2)n1` [Example 9, (3,5-dimethyl-1H-pyrazol-1-yl)(1-(8-fluoro-7-(8-fluoronaphthalen-1-yl)-2-((tetrahydro-1H-pyrrolizin-7a(5H)-yl)methoxy)pyrido[4,3-d]pyrimidin-4-yl)piperidin-4-yl)methanone], the IC50 in assay [1] stood at 31500 nM; in assay [2], 30600 nM; in assay [3], 64600 nM.
For `N#Cc1ccccc1OC(=O)C1CCN(c2nc(OCC34CCCN3CCC4)nc3c(F)c(-c4cccc5cccc(F)c45)ncc23)CC1` [Example 27, 2-cyanophenyl 1-(8-fluoro-7-(8-fluoronaphthalen-1-yl)-2-((tetrahydro-1H-pyrrolizin-7a(5H)-yl)methoxy)pyrido[4,3-d]pyrimidin-4-yl)piperidine-4-carboxylate], in that order: over 100000 nM, 452 nM and 89200 nM.
Taken in the same sequence, the figures for `COC(=O)[C@H]1CCN(c2nc(OCC34CCCN3CCC4)nc3c(F)c(-c4cccc5cccc(F)c45)ncc23)C[C@@H]1O` [Example 45, methyl (3R,4S)-1-(8-fluoro-7-(8-fluoronaphthalen-1-yl)-2-((tetrahydro-1H-pyrrolizin-7a(5H)-yl)methoxy)pyrido[4,3-d]pyrimidin-4-yl)-3-hydroxypiperidine-4-carboxylate] were over 100000 nM, over 100000 nM and 65700 nM.
Taken in the same sequence, the figures for `O=C(Oc1c(F)cccc1F)C1CCN(c2nc(OCC34CCCN3CCC4)nc3c(F)c(-c4cccc5cccc(F)c45)ncc23)CC1` [Example 30, 2,6-difluorophenyl 1-(8-fluoro-7-(8-fluoronaphthalen-1-yl)-2-((tetrahydro-1H-pyrrolizin-7a(5H)-yl)methoxy)pyrido[4,3-d]pyrimidin-4-yl)piperidine-4-carboxylate] were 32800 nM, 194 nM and over 100000 nM.
For `O=C(Oc1ccc(F)c(F)c1)[C@H]1CCN(c2nc(OCC34CCCN3CCC4)nc3c(F)c(-c4cccc5cccc(F)c45)ncc23)C[C@H]1O` [Example 36, 3,4-difluorophenyl (3S,4S)-1-(8-fluoro-7-(8-fluoronaphthalen-1-yl)-2-((tetrahydro-1H-pyrrolizin-7a(5H)-yl)methoxy)pyrido[4,3-d]pyrimidin-4-yl)-3-hydroxypiperidine-4-carboxylate], the IC50 in assay [1] was over 100000 nM; in assay [2], 18900 nM; in assay [3], over 100000 nM.
Turning to `O=C(OCC(F)(F)F)[C@@H]1[C@@H]2CC[C@H]1CN(c1nc(OCC34CCCN3CCC4)nc3c(F)c(-c4cccc5cccc(F)c45)ncc13)C2` [Example 18, 2,2,2-trifluoroethyl (1R,5S,8r)-3-(8-fluoro-7-(8-fluoronaphthalen-1-yl)-2-((tetrahydro-1H-pyrrolizin-7a(5H)-yl)methoxy)pyrido[4,3-d]pyrimidin-4-yl)-3-azabicyclo[3.2.1]octane-8-carboxylate], the results for the IC50 in assay [1], in assay [2] and in assay [3] were 30000 nM, 42100 nM and 7970 nM, respectively.
Taken in the same sequence, the figures for `O=C(Oc1c(F)cccc1F)[C@@H]1[C@@H]2CC[C@H]1CN(c1nc(OCC34CCCN3CCC4)nc3c(F)c(-c4cccc5cccc(F)c45)ncc13)C2` [Example 24, 2,6-difluorophenyl (1R,5S,8r)-3-(8-fluoro-7-(8-fluoronaphthalen-1-yl)-2-((tetrahydro-1H-pyrrolizin-7a(5H)-yl)methoxy)pyrido[4,3-d]pyrimidin-4-yl)-3-azabicyclo[3.2.1]octane-8-carboxylate] were over 100000 nM, 30500 nM and 17700 nM.
